Laboratory results: patent US20240300945A1, “CLY SERIES COMPOUND, PREPARATION METHOD THEREFOR AND USE THEREOF IN PREPARATION OF DRUGS” (NANJING WELLBEST PHARMACEUTICAL CO., LTD, priority 2021, published 2024)

Columns and labels:
skin melanocytes = assay: Chloasma model of guinea pig: pathomorphological observation of skin melanocytes; assay type: in vivo; set-up: Average gray level (melanocyte depth): scale not given here; settings: 0.25% cream once a day, 30 days
Excerpt: According to the body weight, they were randomly divided into the model control group (applied cream matrix), blank control group (applied cream matrix), CLY-1 treatment group (applied 0.25% CLY-1 cream on the skin), CLY-2 treatment group (0.25% CLY-2 cream on the skin), CLY-3 treatment group (0.25% CLY-3 cream on the skin), CLY-4 treatment group (0.25% CLY-4 cream on the skin), CLY-5 treatment group (0.25% CLY-5 cream on the skin) CLY-8 treatment group (0.25% CLY-8 cream on the skin), CLY-11 treatment group (0.25% CLY-11 cream on the skin), CLY-19 treatment group (0.25% CLY-19 cream on the skin), CLY-36 treatment group (0.25% CLY-36 cream on the skin), CLY-39 treatment group (0.25% CLY-39 cream on the skin), positive treatment group (0.25% arbutin cream on the skin), 6 in each group. In addition to the blank control group, all guinea pigs in the other groups were injected with 20 mg/ml progesterone injection (7.5 mg/kg) into the muscle at the root of the hind leg, once a day, for 30 consecutive days to establish the chloasma model. […] After modeling, the guinea pigs in the model control group, blank control group, each CLY series treatment group, and positive treatment group were treated with corresponding cream on the back for intervention, once a day, for 30 consecutive days.
Took 1 piece of spare skin tissue from each of all guinea pigs, about 2 cm×1 cm, 10% paraformaldehyde fixation, pathological tissue detection, immunohistochemical staining, observation of melanocyte staining and number, and judgment of positive cells according to the literature: none, 0 point<15%, 0.5 points<30%, 1 point; >30%, 2 points. Observed 5 visual fields in each slice, found out the positive target with brown reaction in the cytoplasm of skin epidermis and accessory epithelial cells, and used BX50F4 Beihang pathological image analysis system for quantitative analysis to obtain the average area, the ratio of target area to statistical field area (areal density), the ratio of target number to statistical field area (number density), the average gray level, the average optical density and the integrated optical density of each guinea pig's 5 visual fields of melanin positive target.
SPSS16.0 software was used for statistics. The measurement data were expressed by mean±standard deviation (x±s). The comparison between multiple groups was performed by one-way ANOVA, and the comparison between groups was performed by t-test. P<0.05 was statistically significant.

mouse eczema model = assay: Mouse eczema model: ear thickness; assay type: in vivo, C57BL/6 mice; settings: after modeling, 14th day; 0.1% cream for external use twice a day, 10 days (positive: aloxone)
Excerpt: Preparation method of CLY cream: the matrix components included methyl silicone oil (15%), stearic acid (6%), white vaseline (5%), liquid paraffin (5%), octadecanol (5%), glycerin (20%), alkyl aryl polyglycol ether (1%), fatty alcohol polyoxyethylene ether (1%), Tween-807 (1%), ethyl paraben (0.1%), distilled water (about 31-55%), and it was mixed with an appropriate amount of CLY series compound liquid to form a mixed emulsion. The cream matrix used in this embodiment refers to the matrix components after the active ingredients were removed from the cream.
SPF grade female C57BL/6 mice were purchased at the age of 8 weeks (0.02 kg), 6 in each group, and randomly divided into the blank control group, model group, positive drug group, CLY-1 treatment group (0.1% CLY-1 cream for external use), CLY-2 treatment group (0.1% CLY-2 cream for external use), CLY-3 treatment group (0.1% CLY-3 cream for external use), CLY-4 treatment group (0.1% CLY-4 cream for external use), CLY-8 treatment group (0.1% CLY-8 cream for external use), CLY-11 treatment group (0.1% CLY-11 cream for external use) CLY-19 treatment group (0.1% CLY-19 cream for external use), CLY-36 treatment group (0.1% CLY-36 cream for external use) and CLY-39 treatment group (0.1% CLY-39 cream for external use).
Model establishment: the normal control group mice were smeared with 75% ethanol 14.3 ul on both ears, while the model group, positive drug group and treatment group were smeared with 1 nmol/L carpotriol liniment 14.3 ul on both ears at a regular time every day, and then smeared with 20 g/L OVA 25 ul after air drying, once a day, for 12 days to make a model.
From 4 days after the start of modeling, applied the cream matrix on the ear skin of mice in the blank control group and the model group, applied aloxone on the ear skin of mice in the positive drug group, and applied the treatment cream on the ear skin of mice in each treatment group respectively, twice a day in the morning and evening, for 10 consecutive days, took photos every day, and recorded scores.
The thickness of mouse auricle was measured and recorded with ear thickness measuring instrument before and on the 14th day respectively. After the measurement on the 14th day, the mice were sacrificed. Blood was taken and serum was separated.

## CN1CCC[C@@H](N(C(=O)c2ccc(-n3nnc4cccnc43)cc2)c2ncccc2Cl)C1 [CLY-1, (R)-4-(3H-[1,2,3]triazolo[4,5-b]pyridin-3-yl)-N-(3-chloropyridin-2-yl)-N-(1-methylpiperidin-3-yl)benzamide]
Skin melanocytes
  Area density of melanocytes: 0.005 ± 0.002
  Area of melanocytes: 372.31 ± 58.32 um2
  Average gray level (melanocyte depth): 0.43 ± 0.07
  Average optical density (melanocyte depth): 11.23 ± 1.21
  Integrated optical density (melanocyte depth): 103.34 ± 9.71
  Number density of melanocytes: 1.91 ± 0.96
  Number of melanocytes: 1.93 ± 0.55
Mouse eczema model
  Ear thickness: 0.251 mm

## CCN1CCC[C@@H](N(C(=O)c2ccc(-n3nnc4cccnc43)cc2)c2ncccc2Cl)C1 [CLY-2, (R)-4-(3H-[1,2,3]triazolo[4,5-b]pyridin-3-yl)-N-(3-chloropyridin-2-yl)-N-(1-ethylpiperidin-3-yl)benzamide]
Skin melanocytes
  Area density of melanocytes: 0.004 ± 0.002
  Area of melanocytes: 366.26 ± 62.15 um2
  Average gray level (melanocyte depth): 0.41 ± 0.06
  Average optical density (melanocyte depth): 10.68 ± 1.18
  Integrated optical density (melanocyte depth): 106.96 ± 9.84
  Number density of melanocytes: 1.88 ± 1.34
  Number of melanocytes: 1.75 ± 0.53
Mouse eczema model
  Ear thickness: 0.246 mm

## CNC1CCCC(N(C(=O)c2ccc(-n3nnc4cccnc43)cc2)c2ncccc2Cl)C1 (stereo not shown) [CLY-3]
Skin melanocytes
  Area density of melanocytes: 0.008 ± 0.003
  Area of melanocytes: 436.32 ± 79.12 um2
  Average gray level (melanocyte depth): 0.52 ± 0.08
  Average optical density (melanocyte depth): 11.42 ± 1.32
  Integrated optical density (melanocyte depth): 95.36 ± 9.86
  Number density of melanocytes: 2.82 ± 1.25
  Number of melanocytes: 2.13 ± 0.61
Mouse eczema model
  Ear thickness: 0.297 mm

## O=C(c1ccc(-n2nnc3cccnc32)cc1)N(c1ncccc1Cl)C1CCCC(O)C1 (stereo not shown) [CLY-4]
Skin melanocytes
  Area density of melanocytes: 0.009 ± 0.003
  Area of melanocytes: 496.56 ± 86.23 um2
  Average gray level (melanocyte depth): 0.58 ± 0.09
  Average optical density (melanocyte depth): 11.61 ± 1.38
  Integrated optical density (melanocyte depth): 92.45 ± 9.36
  Number density of melanocytes: 2.95 ± 1.41
  Number of melanocytes: 2.45 ± 0.67
Mouse eczema model
  Ear thickness: 0.323 mm

## COC1CCCC(N(C(=O)c2ccc(-n3nnc4cccnc43)cc2)c2ncccc2Cl)C1 (stereo not shown) [CLY-5]
Skin melanocytes
  Area density of melanocytes: 0.004 ± 0.001
  Area of melanocytes: 345.31 ± 56.21 um2
  Average gray level (melanocyte depth): 0.40 ± 0.05
  Average optical density (melanocyte depth): 10.59 ± 1.13
  Integrated optical density (melanocyte depth): 107.06 ± 9.57
  Number density of melanocytes: 1.75 ± 1.29
  Number of melanocytes: 1.43 ± 0.32

## O=C(c1ccc(-n2nnc3cccnc32)cc1)N(c1ncccc1Cl)[C@@H]1CCNC1 [CLY-8, (R)-4-(3H-[1,2,3]triazolo[4,5-b]pyridin-3-yl)-N-(3-chloropyridin-2-yl)-N-(pyrrolidin-3-yl)benzamide]
Skin melanocytes
  Area density of melanocytes: 0.003 ± 0.001
  Area of melanocytes: 341.26 ± 54.82 um2
  Average gray level (melanocyte depth): 0.39 ± 0.04
  Average optical density (melanocyte depth): 10.48 ± 1.11
  Integrated optical density (melanocyte depth): 103.15 ± 9.52
  Number density of melanocytes: 1.71 ± 1.26
  Number of melanocytes: 1.36 ± 0.29
Mouse eczema model
  Ear thickness: 0.245 mm

## NC1CCCC(N(C(=O)c2ccc(-n3nnc4cccnc43)cc2)c2ncccc2Cl)C1 (stereo not shown) [CLY-11]
Skin melanocytes
  Area density of melanocytes: 0.006 ± 0.002
  Area of melanocytes: 417.53 ± 73.16 um2
  Average gray level (melanocyte depth): 0.46 ± 0.06
  Average optical density (melanocyte depth): 11.26 ± 1.22
  Integrated optical density (melanocyte depth): 101.38 ± 9.92
  Number density of melanocytes: 2.16 ± 1.38
  Number of melanocytes: 1.98 ± 0.56
Mouse eczema model
  Ear thickness: 0.278 mm

## O=C(c1ccc(-c2ccccc2-c2nnn[nH]2)cc1)N(c1ncccc1Cl)[C@@H]1CCCNC1 [CLY-19]
Skin melanocytes
  Area density of melanocytes: 0.006 ± 0.003
  Area of melanocytes: 405.62 ± 73.45 um2
  Average gray level (melanocyte depth): 0.45 ± 0.06
  Average optical density (melanocyte depth): 11.28 ± 1.24
  Integrated optical density (melanocyte depth): 102.65 ± 9.97
  Number density of melanocytes: 2.18 ± 1.35
  Number of melanocytes: 1.95 ± 0.52
Mouse eczema model
  Ear thickness: 0.253 mm

## O=C(c1ccc(-c2ccccc2Cl)cc1)N(c1ncccc1Cl)[C@@H]1CCCNC1 [CLY-36]
Skin melanocytes
  Area density of melanocytes: 0.007 ± 0.004
  Area of melanocytes: 495.32 ± 79.43 um2
  Average gray level (melanocyte depth): 0.47 ± 0.07
  Average optical density (melanocyte depth): 11.53 ± 1.22
  Integrated optical density (melanocyte depth): 97.62 ± 9.91
  Number density of melanocytes: 2.67 ± 1.38
  Number of melanocytes: 1.98 ± 0.59
Mouse eczema model
  Ear thickness: 0.248 mm

## Nc1ccccc1-c1ccc(C(=O)N(c2ncccc2Cl)[C@@H]2CCCNC2)cc1 [CLY-39]
Skin melanocytes
  Area density of melanocytes: 0.006 ± 0.003
  Area of melanocytes: 458.06 ± 76.32 um2
  Average gray level (melanocyte depth): 0.47 ± 0.07
  Average optical density (melanocyte depth): 11.06 ± 1.17
  Integrated optical density (melanocyte depth): 101.36 ± 9.72
  Number density of melanocytes: 2.03 ± 1.24
  Number of melanocytes: 1.39 ± 0.32
Mouse eczema model
  Ear thickness: 0.246 mm
